According to patent US8569378B2, “p27 protein inducer” (Chugai Seiyaku Kabushiki Kaisha, priority 2007, dated 2013):

Experiments:
p27 protein [1] = assay: Detection of p27 protein by Western blotting in NCI-H460 cell lysate; type: cell-based, human; conditions: NCI-H460 cells; 0.3-30 μmol/L; KIP-10 48 hours, KIP-12 24 hours; FIGS. 1 and 3
Method: (§1) The p27 protein-inducing activities of KIP-10 (the compound represented by formula (C)) and KIP-12 (the compound represented by formula (D)) were measured as follows.
(§2) Preparation of Cell Lysate:
(§3) NCI-H460 human non-small cell lung cancer cells (ATCC HTB-177), DU-145 human prostate cancer cells (ATCC HTB-81) or HCT116 human colon cancer cells (ATCC CCL-247) were plated in 6-well plates at 2×10^5 cells/well and incubated overnight. Then, the test substance was added to the medium to a final concentration of 0.3 μmol/L, 1 μmol/L, 3 μmol/L, 10 μmol/L or 30 μmol/L or was not added and the cells were incubated at 37° C. in 5% CO2 for 48 or 24 hours. The cells were washed with cold PBS(−), which was then completely removed. 0.35 mL of Cell Lysis Buffer (catalog no. 9803, Cell Signaling) which had been diluted to 1-fold concentration was added, and the mixture was allowed to stand on ice for 10 minutes. The Cell Lysis Buffer in which cells were lysed was collected together with cells and subjected to sonication (speed 1, duty 80) for 10 seconds. […]
(§4) The total protein concentration in the supernatant was determined with a DC Protein Kit (catalog no. 500-0122, Bio-Rad). […] After washing three times with TBS-T, it was immersed in ECL kit reagent (catalog no. RPN2132, Amersham) for 1 minute and the band was detected with a chemiluminescence reader. […]

p27 protein [2] = assay: Quantification of p27 protein by ELISA (p27 protein-inducing activity, EC50); type: cell-based, human; conditions: NCI-H460 cells, 48 hours, p27 sandwich ELISA; Table 1-2
Method: The p27 protein-inducing activities of the compounds or salts listed in Tables 1-1, 1-2 and 2 below were measured as follows.
as §2
NCI-H460 human non-small cell lung cancer cells (ATCC HTB-177) were plated in 6-well plates at 2×10^5 cells/well and incubated overnight. Then, the test substance was added to the medium to a final concentration of 10000 nmol/L, 3000 nmol/L, 100 nmol/L, 30 nmol/L, 10 nmol/L, 3 nmol/L, 1 nmol/L, 0.3 nmol/L, 0.1 nmol/L, 0.03 nmol/L or 0.01 nmol/L and the cells were incubated at 37° C. in 5% CO2 for 48 hours. 150 μL of Cell Lysis Buffer (catalog no. 9803, Cell Signaling) which had been diluted to 1-fold concentration (1 mM PMSF was added immediately before use) was added, and the mixture was allowed to stand on ice for 10 minutes. The Cell Lysis Buffer in which cells were lysed was collected together with cells with a scraper and transferred to a new tube. It was centrifuged at 15000 rpm for 10 minutes at 4° C. and the supernatant was then transferred to a new tube.
Quantification by Sandwich ELISA:
Anti-p27 monoclonal antibody (catalog no. 71-9600, Zymed) was diluted to 5 μg/mL in 50 mM carbonate coating buffer (0.4 g/L NaCO3, 0.73 g/L NaHCO3 and 0.04 g/L NaN3 in distilled water), and it was then added at 50 μL/well and allowed to stand overnight at 4° C. to bind the antibody. After washing three times with PBS, 200 μL of blocking solution (0.2% I-Block in PBS) was added to each well. After 1 hour of incubation at room temperature, washing with PBS-T (0.05% Tween 20 in PBS) was performed three times. The sample and recombinant p27 protein standard were serially diluted in Cell Lysis Buffer (catalog no. 9803, Cell Signaling) which had been diluted to 1-fold concentration (1 mM PMSF was added immediately before use), and it was then added at 100 μL/well. After 1 hour of incubation at room temperature, washing with 200 μL of PBS-T was performed three times. HRP-labeled anti-p27 antibody (product no. 610243, BD Transdution Laboratories) was diluted 1:2500 (i.e. to 0.1 μg/mL) in 0.2% I-Block/0.05% PBS-T, and it was then added at 100 μL/well. After 1 hour of incubation at room temperature, washing with 200 μL of PBS-T was performed three times. Chromogenic substrate solution (TMB One Solution, catalog no. G7431, Promega) was added at 100 μL/well and allowed to develop a color reaction at room temperature. After stopping the reaction with 50 μL of 1N H2SO4, the absorbance at 450 nm was measured.
Calculation of EC50 Values:
A standard response curve was generated by plotting the amount of p27 protein against the concentration of the test substance. The basal level of response was defined as 0%, while the plateau level where the induction of p27 protein had been maximized was defined as 100%. Finally, the test substance concentration at which 50% induction was achieved was calculated, and it was defined as EC50.

p27 protein [3] = assay: Detection of p27 protein by Western blotting in DU-145 cell lysate; type: cell-based; conditions: DU-145 human prostate cancer cells; 0.3-30 μmol/L; 48 hours; FIG. 2
Method: as §1, §2, §3, §4

p27 protein [4] = assay: Detection of p27 protein by Western blotting in HCT116 cell lysate; type: cell-based; conditions: HCT116 human colon cancer cells; 0.3-30 μmol/L; 24 hours; FIG. 4
Method: as §1, §2, §3, §4

SMILES | p27 protein-inducing activity (Western blotting) (p27 protein [1]) | EC50 (p27 protein [2]) | p27 protein-inducing activity (Western blotting) (p27 protein [3]) | p27 protein-inducing activity (Western blotting) (p27 protein [4])
Cc1c(Cc2ccccc2N)c(=O)oc2cc(OC(=O)N(C)C)c(Cl)cc12 [KIP-10, dimethylcarbamic acid 3-(2-aminobenzyl)-6-chloro-4-methyl-2-oxo-2H-1-benzopyran-7-yl ester] | sufficiently high p27 protein-inducing activity | 6 µM | sufficiently high p27 protein-inducing activity | 
Cc1nn(Cc2ccc(C(=O)Nc3nc4ccccc4s3)cc2)c(C)c1[N+](=O)[O-] [KIP-12] | sufficiently high p27 protein-inducing activity |  |  | sufficiently high p27 protein-inducing activity
